Laboratory results reported in PMC8033486 (Frontiers in Pharmacology, 2021).
Counter-ions that a name gives are not always drawn. Like-named read-outs stand apart in the source and are kept apart here. *1 amine or outer side, *2 acyl side, *3 side chain or, on linkers, in order; H or OH if unused. Where a SMILES comes first, the peptide text is derived from it. Bridges are numbered along the chain shown (N, C = ends). [ ]: non-standard residue; d: D form. The star is where a group is joined. X1 = CC[C@H](C)[C@@H](N[*:1])[C@@H](O)CC(=O)O[C@H](C(=O)[C@H](C)C(=O)[*:2])C(C)C; NMeY = CN[C@@H](Cc1ccc(O)cc1)C(=O)O; dNMeL = CN[C@H](CC(C)C)C(=O)O; Pyruvoyl = CC(=O)C(=O)*

Assays:
SARS-CoV-2 = experiment: microbe, parasite or virus in culture; assay type: cell-based
in vitro = conditions: African green monkey
[1] = Severe acute respiratory syndrome coronavirus 2, Vero C1008, Vero E6, one representative experiment with two replicates, when combined, each drug at the same concentration, read-out: IC50 value of the particular graph
[2] = CC50, Vero E6, no virus, 3 days

CC1SCC(C(=O)NC(Cc2cnc[nH]2)C(=O)N2CCCC2C(N)=O)NC1=O.O=C(O)C(F)(F)F (stereo not drawn) [Montirelin trifluoroacetate salt]
IC50 (Mean +/- SD) (SARS-CoV-2): Not Active

CCOC(=O)C1=C(CN2CCOCC2)NC(c2nccs2)=NC1c1ccc(F)cc1Br (stereo not drawn) [Morphothiadine]
IC50 (Mean +/- SD) (SARS-CoV-2): Not Active

CC(=O)N[C@@H](CS)C(=O)O [N-Acetil cystein]
IC50 (Mean +/- SD) (SARS-CoV-2): Not Active

Cc1c(O)cccc1C(=O)N[C@@H](CSc1ccccc1)[C@H](O)CN1C[C@H]2CCCC[C@H]2C[C@H]1C(=O)NC(C)(C)C [Nelfinavir mesylate hydrate]
IC50 (SARS-CoV-2; Severe acute respiratory syndrome coronavirus 2, Vero C1008, 72 h, Vero E6, cytopathic effect 3 days after infection, repeated experiments, read-out: IC50 (Mean +/- SD)): < 10 µM
IC50 (SARS-CoV-2; [1]): 1.4 µM
CC50 at 3 days (in vitro; [2]): > 25 µM

O=C(Nc1ccc([N+](=O)[O-])cc1Cl)c1cc(Cl)ccc1O [Niclosamide]
Inhibition of SARS-CoV-2-induced cytopathic effect, result in words (SARS-CoV-2; Vero E6): failed to protected Vero E6 cells from SARS-CoV-2 induced cytopathic effect
CC50 at 3 days (in vitro; [2]): > 9 µM

CC(=O)c1c(C)c2cnc(Nc3ccc(N4CCNCC4)cn3)nc2n(C2CCCC2)c1=O [Palbociclib]
CC50 at 3 days (in vitro; [2]): 2.7 µM

CCOC(=O)Cn1cccc1-c1nc(-c2ccc(OC)cc2)c(-c2ccc(OC)cc2)s1 [Pamicogrel]
CC50 at 3 days (in vitro; CC50): 6.4 µM

N#Cc1ccccc1-c1cc(-c2ccccn2)cn(-c2ccccc2)c1=O [Perampanel]
IC50 (Mean +/- SD) (SARS-CoV-2): Not Active

CC[C@H](C)[C@H]1NC(=O)[C@@H](NC(=O)[C@@H](CC(C)C)N(C)C(=O)[C@@H]2CCCN2C(=O)C(C)=O)[C@@H](C)OC(=O)[C@H](Cc2ccc(OC)cc2)N(C)C(=O)[C@@H]2CCCN2C(=O)[C@H](CC(C)C)NC(=O)[C@@H](C)C(=O)[C@H](C(C)C)OC(=O)C[C@@H]1O [Plitidepsin] (Pyruvoyl-P[dNMeL]T[X1]LP[NMeY](Me); ester 3-C)
IC50 (SARS-CoV-2; Severe acute respiratory syndrome coronavirus 2, Vero C1008, 72 h, read-out: IC50 (Mean +/- SD)): 0.06 µM
IC50 (SARS-CoV-2; [1]): 0.05 µM
Inhibition of SARS-CoV-2-induced cytopathic effect, result in words (SARS-CoV-2; Vero E6): always in nM concentrations
CC50 (in vitro): > 0.1 µM

CCN(CC)CCCC(C)Nc1c2ccc(Cl)cc2nc2ccc(OC)cc12 (stereo not drawn) [Quinacrine dihydrochloride]
CC50 at 3 days (in vitro; [2]): > 6 µM

CCC(CC)COC(=O)[C@H](C)N[P@](=O)(OC[C@H]1O[C@@](C#N)(c2ccc3c(N)ncnn23)[C@H](O)[C@@H]1O)Oc1ccccc1 [Remdesivir]
IC50 (SARS-CoV-2; [1]): 1.2 µM
IC50 (SARS-CoV-2; Vero E6, cytopathic effect 3 days after infection, repeated experiments, read-out: IC50 (Mean +/- SD)): < 10 µM
CC50 (in vitro): > 85 µM

CN(C)C(=O)c1cc2cnc(Nc3ccc(N4CCNCC4)cn3)nc2n1C1CCCC1 [Ribociclib]
IC50 (Mean +/- SD) (SARS-CoV-2): Not Active
CC50 at 3 days (in vitro; [2]): > 20 µM

CC(C)(C)NC(=O)[C@@H]1C[C@@H]2CCCC[C@@H]2CN1C[C@@H](O)[C@H](Cc1ccccc1)NC(=O)[C@H](CC(N)=O)NC(=O)c1ccc2ccccc2n1 [Saquinavir]
CC50 at 3 days (in vitro; [2]): > 28 µM

COc1cc(C2Oc3cc([C@H]4Oc5cc(O)cc(O)c5C(=O)[C@@H]4O)ccc3OC2CO)ccc1O (stereo partly drawn) [Silibinin]
CC50 at 3 days (in vitro; [2]): > 20 µM

CC(C)OC(=O)[C@H](C)N[P@](=O)(OC[C@H]1O[C@@H](n2ccc(=O)[nH]c2=O)[C@](C)(F)[C@@H]1O)Oc1ccccc1 [Sofosbuvir]
IC50 (Mean +/- SD) (SARS-CoV-2): Not Active
CC50 (in vitro): > 100 µM

CC(C)OC(=O)[C@H](C)N[P@](=O)(CO[C@H](C)Cn1cnc2c(N)ncnc21)Oc1ccccc1 [Tenofovir Alafenamide]
IC50 (Mean +/- SD) (SARS-CoV-2): Not Active
Inhibition of SARS-CoV-2-induced cytopathic effect, result in words (SARS-CoV-2): failed to show any antiviral effect
CC50 (in vitro): > 100 µM

CC(C)OC(=O)OCOP(=O)(CO[C@H](C)Cn1cnc2c(N)ncnc21)OCOC(=O)OC(C)C [Tenofovir disoproxil fumarate]
Inhibition of SARS-CoV-2-induced cytopathic effect, result in words (SARS-CoV-2; Vero E6): failed to show any antiviral effect
CC50 (in vitro): > 100 µM

COc1c(O[C@@H]2O[C@H](CO)[C@@H](O)[C@H](O)[C@H]2O)cc2c(c1OC)-c1ccc(SC)c(=O)cc1[C@@H](NC(C)=O)CC2 [Thiocolchicoside]
IC50 (Mean +/- SD) (SARS-CoV-2): Not Active

CCC[C@@]1(CCc2ccccc2)CC(O)=C([C@H](CC)c2cccc(NS(=O)(=O)c3ccc(C(F)(F)F)cn3)c2)C(=O)O1 [Tipranavir]
Inhibition of SARS-CoV-2-induced cytopathic effect, result in words (SARS-CoV-2; Vero E6): inhibited SARS-CoV-2-induced cytopathic effect at the non-toxic concentration of 20 μM
CC50 at 3 days (in vitro; [2]): > 70 µM

COC[C@H]1C[C@@H](c2ncc(-c3ccc4c(c3)COc3cc5c(ccc6nc([C@@H]7CC[C@H](C)N7C(=O)[C@@H](NC(=O)OC)C(C)C)[nH]c65)cc3-4)[nH]2)N(C(=O)[C@H](NC(=O)OC)c2ccccc2)C1 [Velpatasvir]
CC50 at 3 days (in vitro; CC50): > 10 µM

Ivermectin
IC50 (Mean +/- SD) (SARS-CoV-2): Not Active

Laflunimus Sodium Salt
IC50 (Mean +/- SD) (SARS-CoV-2): Not Active

Methyl-ß-cyclodextrin
IC50 (Mean +/- SD) (SARS-CoV-2): active at 1000
Inhibition of SARS-CoV-2-induced cytopathic effect, result in words (SARS-CoV-2; Vero E6): abrogate SARS-CoV-2 induced cytopathic effect

interferon-γ [IFN stimulated antivirus proteins; granulomatous disease]
Inhibition of SARS-CoV-2-induced cytopathic effect, result in words (SARS-CoV-2; Vero E6): displayed antiviral activity
